Data on two substances can be found in US7049415B2 (priority 2002, dated 2006).

In this experiment the test system is HIV-1. The following applies: cMAGI/MAGI cells; for IC50: 50% reduction in infectious virus titer; for IC90: 90% reduction in infectious virus titer. From the text:
The number of stained nuclei can thus be interpreted as equal to the number of infectious virions in the challenge inoculum if there is only one round of infection prior to staining.

A word on the IC50: it is the concentration that gives 50% inhibition. Low readings indicate greater potency, high ones weaker potency. As a reminder, the IC90 is the concentration needed for an effect of 90%. A higher IC90 goes with a need for much substance.

“Pegylated T20 with PEG10K-butanoaldehyde [Example 2]” yielded an IC50 of 0.266 µg/mL and an IC90 of 2.536 µg/mL.
For “Pegylated T20 with mPEG10k-propionaldehyde [Example 3]” the same measures were 0.261 µg/mL and 3.074 µg/mL.
